According to ChEMBL document CHEMBL4190228, “Covalent inhibitors design and discovery” (Eur J Med Chem, 2017):

Key:
[1] = target: Tyrosine-protein kinase BTK (Homo sapiens) (UniProt Q06187); experiment: Receptor occupancy at BTK in human Ramos B cells at 1 uM preincubated for 1 hr followed by compound washout measured after 20 hrs by PP-BODIPY probe based fluorescence assay; type: cell-based
Tyrosine-protein kinase BTK (Homo sapiens), sequence (Q06187 whole entry): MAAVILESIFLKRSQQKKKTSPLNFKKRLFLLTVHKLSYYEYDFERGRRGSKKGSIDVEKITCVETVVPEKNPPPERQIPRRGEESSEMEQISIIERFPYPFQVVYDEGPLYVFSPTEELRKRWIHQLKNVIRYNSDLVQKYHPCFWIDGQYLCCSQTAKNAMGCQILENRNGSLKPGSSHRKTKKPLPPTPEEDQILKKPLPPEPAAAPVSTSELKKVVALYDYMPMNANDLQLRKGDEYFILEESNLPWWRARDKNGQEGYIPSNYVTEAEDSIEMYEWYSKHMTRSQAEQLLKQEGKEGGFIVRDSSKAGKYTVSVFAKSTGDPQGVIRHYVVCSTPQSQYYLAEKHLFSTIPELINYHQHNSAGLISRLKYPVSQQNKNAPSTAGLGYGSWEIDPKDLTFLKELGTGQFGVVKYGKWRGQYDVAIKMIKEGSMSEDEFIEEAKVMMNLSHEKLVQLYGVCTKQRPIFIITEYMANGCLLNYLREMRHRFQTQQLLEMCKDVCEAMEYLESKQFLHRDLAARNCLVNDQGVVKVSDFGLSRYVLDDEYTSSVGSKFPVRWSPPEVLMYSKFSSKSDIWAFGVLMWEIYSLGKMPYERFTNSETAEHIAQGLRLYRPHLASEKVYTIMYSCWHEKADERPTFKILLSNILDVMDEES

SMILES	T1/2 (Francisella tularensis)	Occ [1]
CC(C)(C)NC(=O)[C@H]1CC[C@H]2[C@@H]3CC[C@H]4NC(=O)C=C[C@]4(C)[C@H]3CC[C@]12C	4.7 to 7.1 h	–
C/C=C(\C#N)C(=O)N1CCC[C@@H](n2nc(-c3ccc(Oc4ccccc4)cc3)c3c(N)ncnc32)C1	–	5%
CC(C)(C)/C=C(\C#N)C(=O)N1CCC[C@@H](n2nc(-c3ccc(Oc4ccccc4)cc3)c3c(N)ncnc32)C1	–	50%
